Columns and labels:
[1] = In vivo pharmacokinetic study in CD-1 mice; conditions: male, mouse, single oral gavage dose of 10 mg/kg, plasma
Description: In vivo pharmacokinetic study in CD-1 mice
Twenty-four healthy adult male mice from Beijing Vital River Laboratory Animal Technology Co., Ltd. were used in the study.
CD-1 mice were administered with a single oral gavage dose of 10 mg/kg in a volume of 10 mL/kg at a concentration of 1 mg/mL.
The test article in this project is generally suspended in 0.5% hydroxypropylmethyl cellulose, 0.1% Tween 80 (W/V/V) aqueous solution at the concentration of 1 mg/mL.
Animals dosed by gavage were fasted overnight before the experiment from 16 h before dosing to 4 h after dosing. Blood was collected at 0.25, 0.5, 1, 2, 4, 6, 8, and 24 h after administration successively. The animals were lightly anesthetized with isoflurane. About 0.2 mL of whole blood was collected from the orbital venous plexus using a glass blood collection tube and placed in a sodium heparin anticoagulant tube. The sample was centrifuged at 5200 rpm for 5 min at 4° C. The plasma was transferred to a centrifuge tube and stored at −80° C. until analysis.
Analysis of plasma samples Test compounds and internal standards (warfarin or propranolol) were extracted from mouse plasma using an acetonitrile protein precipitation method and the extracts were analyzed by LC/MS/MS. The measured plasma concentration-time data of individual animals were analyzed using the non-compartmental model of WinNonlin (version 5.2.1, Pharsight) software to obtain the corresponding pharmacokinetic parameters: maximum (peak) plasma drug concentration Cmax; Time to peak Tmax; Half-life T1/2 and area under the plasma concentration-time curve extrapolated to infinite time AUC0-inf.

human MAT2A enzyme = human MAT2A enzyme (Homo sapiens (Human), UniProt P31153); assay: In vitro enzymatic inhibition activity assay on MAT2A (PiColorLock phosphate detection); assay type: biochemical; conditions: purified human MAT2A 10 nM, ATP 50 μM, L-methionine 100 μM, 6 h at 23° C.; read-out: MAT2A inhibitory activity IC50
Outline: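 IC50 came from an 8-point, 10-fold compound series that reduced phosphate release, measured by absorbance at 630 nm. Reactions ran 6 h at 23 °C with 10 nM human MAT2A, 50 μM ATP and 100 μM L-methionine in pH 7.5 Tris buffer containing Mg2+.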

human MAT2A enzyme, sequence (P31153 whole entry): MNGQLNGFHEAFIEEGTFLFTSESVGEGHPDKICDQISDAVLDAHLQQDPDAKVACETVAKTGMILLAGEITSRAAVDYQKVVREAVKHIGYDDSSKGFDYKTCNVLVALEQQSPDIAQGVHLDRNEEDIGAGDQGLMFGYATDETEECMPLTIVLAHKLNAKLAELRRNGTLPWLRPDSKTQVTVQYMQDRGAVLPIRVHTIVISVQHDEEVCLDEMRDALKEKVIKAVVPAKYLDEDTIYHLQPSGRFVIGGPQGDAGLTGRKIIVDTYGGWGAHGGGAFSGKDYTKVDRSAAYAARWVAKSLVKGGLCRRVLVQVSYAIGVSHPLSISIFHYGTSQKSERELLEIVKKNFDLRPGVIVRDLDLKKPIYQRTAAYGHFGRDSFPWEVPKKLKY

An AUC [1] of 44200 ng·h/mL, a Cmax [1] of 3080 ng/mL and a Tmax [1] of 6 h were found for COC(=O)c1c(N)c2ccc(Cl)cc2n(-c2ccccc2)c1=O [Example 15, methyl 4-amino-7-chloro-2-oxo-1-phenyl-1,2-dihydroquinoline-3—carboxylate] in this work. It also gave a half-life [1] of 8.88 h.
An IC50 (human MAT2A enzyme) of 0.54 nM, an AUC [1] of 25300 ng·h/mL and a Cmax [1] of 1920 ng/mL were found for COC(=O)c1c(N)c2ccc(Br)cc2n(-c2ccccc2)c1=O [Example 22, methyl 4-amino-7-bromo-2-oxo-1-phenyl-1,2-dihydroquinoline-3—carboxylate] in this work. The Tmax [1] was 6 h and the half-life [1] was 6.82 h.
An IC50 (human MAT2A enzyme) of 0.91 nM, an AUC [1] of 37000 ng·h/mL and a Cmax [1] of 2640 ng/mL were found for COC(=O)c1c(N)c2ccc(C(F)(F)F)cc2n(-c2ccccc2C)c1=O [Example 23, methyl 4-amino-7-trifluoromethyl-1-(2-methylphenyl)-2-oxo-1,2-dihydro quinoline-3-carboxylate] in this work. The Tmax [1] was 6 h and the half-life [1] was 6.51 h.
An IC50 (human MAT2A enzyme) of 7.3 nM, an AUC [1] of 24800 ng·h/mL and a Cmax [1] of 6690 ng/mL were found for COC(=O)c1c(N)c2ccc(C(F)(F)F)cc2n(-c2cccc3cnccc23)c1=O [Example 88, methyl 4-amino-1-(isoquinolin-5-yl)-2-oxo-7-(trifluoromethyl)-1,2-dihydroquinoline-3-carboxylate] in this work. The Tmax [1] was 0.42 h and the half-life [1] was 3.88 h.
An IC50 (human MAT2A enzyme) of 0.76 nM, an AUC [1] of 32800 ng·h/mL and a Cmax [1] of 5060 ng/mL were found for COC(=O)c1c(N)c2ccc(Br)cc2n(-c2ccc(N)nc2)c1=O [Example 180, methyl 4-amino-1-(6-aminopyridin-3-yl)-7-bromo-2-oxo-1,2-dihydroquinoline-3-carboxylate] in this work. The Tmax [1] was 2.08 h and the half-life [1] was 4.09 h.
An IC50 (human MAT2A enzyme) of 2.89 nM, an AUC [1] of 232000 ng·h/mL and a Cmax [1] of 28600 ng/mL were found for COC(=O)c1c(N)c2ccc(Br)cc2n(-c2ccc(C)nc2)c1=O [Example 214, methyl 4-amino-7-bromo-1-(6-methylpyridin-3-yl)-2-oxo-1,2-dihydroquinoline-3-carboxylate] in this work. The Tmax [1] was 1 h and the half-life [1] was 2.53 h.
An IC50 (human MAT2A enzyme) of 1.24 nM, an AUC [1] of 591000 ng·h/mL and a Cmax [1] of 37500 ng/mL were found for COC(=O)c1c(N)c2ccc(Br)cc2n(-c2ccc(N)cc2C)c1=O [Example 238, methyl 4-amino-1-(4-amino-2-methylphenyl)-7-bromo-2-oxo-1,2-dihydroquinoline-3-carboxylate] in this work. For the same molecule, the Tmax [1] was 4 h and the half-life [1] was 9.25 h.
An IC50 (human MAT2A enzyme) of 2.29 nM, an AUC [1] of 452000 ng·h/mL and a Cmax [1] of 52800 ng/mL were found for COC(=O)c1c(N)c2ccc(C(F)(F)F)nc2n(-c2ccc(N)cc2Cl)c1=O [Example 325, methyl 4-amino-1-(4-amino-2-chlorophenyl)-2-oxo-7-trifluoromethyl-1,2-dihydro-1,8-naphthyridine-3-carboxylate] in this work. For the same molecule, the Tmax [1] was 1 h and the half-life [1] was 6.81 h.
An IC50 (human MAT2A enzyme) of 1.36 nM was found for COC(=O)c1c(N)c2ccc(C(C)(F)F)cc2n(-c2ccc([C@@H](C)O)cc2)c1=O [Example 358, methyl 4-amino-7-(1,1-difluoroethyl)-1-(4-((1R)-1-hydroxyethyl)phenyl)-2-oxo-1,2-dihydroquinoline-3-carboxylate] in this work.
An IC50 (human MAT2A enzyme) of 1.27 nM was found for COC(=O)c1c(N)c2ccc(C3CC3)nc2n(-c2ccc(C(C)O)cc2)c1=O (stereo not drawn) [Example 360, methyl 4-amino-7-cyclopropyl-1-(4-(1-hydroxyethyl)phenyl)-2-oxo-1,2-dihydro-1,8-naphthyridine-3-carboxylate] in this work.
An IC50 (human MAT2A enzyme) of 2.02 nM was found for COC(=O)c1c(N)c2ccc(OC)cc2n(-c2ccc([C@@H](C)O)cc2)c1=O [Example 365, methyl (R)-4-amino-1-(4-(1-hydroxyethyl)phenyl)-7-methoxy-2-oxo-1,2-dihydroquinoline-3-carboxylate] in this work.
An IC50 (human MAT2A enzyme) of 1 nM was found for COC(=O)c1c(N)c2ccc(C(F)F)nc2n(-c2ccc(C(C)O)cc2)c1=O (stereo not drawn) [Example 366, methyl 4-amino-7-(difluoromethyl)-1-(4-(1-hydroxyethyl)phenyl)-2-oxo-1,2-dihydro-1,8-naphthyridine-3-carboxylate] in this work.
An IC50 (human MAT2A enzyme) of 1.45 nM was found for [2H]CC(O)c1ccc(-n2c(=O)c(C(=O)OC([2H])([2H])[2H])c(N)c3ccc(C(F)(F)F)nc32)cc1 (stereo not drawn) [Example 371, methyl-d3 4-amino-1-(4-(1-hydroxyethyl-2-d)phenyl)-2-oxo-7-(trifluoromethyl)-1,2-dihydro-1,8-naphthyridine-3-carboxylate] in this work.
An IC50 (human MAT2A enzyme) of 1.05 nM was found for COC(=O)c1c(N)c2ccc(C3CC3)nc2n(-c2ccc(N)cc2)c1=O [Example 373, methyl 4-amino-1-(4-aminophenyl)-7-cyclopropyl-2-oxo-1,2-dihydro-1,8-naphthyridine-3-carboxylate] in this work.
An IC50 (human MAT2A enzyme) of 1.89 nM was found for COC(=O)c1c(N)c2ccc(C3CC3)nc2n(-c2ccc(C)nc2)c1=O [Example 377, methyl 4-amino-7-cyclopropyl-1-(6-methylpyridin-3-yl)-2-oxopyrido[2,3-b]pyridin-3-carboxylate] in this work.
An IC50 (human MAT2A enzyme) of 1.41 nM, an AUC [1] of 468000 ng·h/mL and a Cmax [1] of 18600 ng/mL were found for COC(=O)c1c(N)c2ccc(OC(F)(F)F)cc2n(-c2ccc(N)cc2)c1=O [Example 379, methyl 4-amino-1-(4-aminophenyl)-2-oxo-7-(trifluoromethoxy)-1,2-dihydroquinoline-3-carboxylate] in this work. The Tmax [1] was 4 h and the half-life [1] was 16.5 h.
An IC50 (human MAT2A enzyme) of 1.88 nM was found for COC(=O)c1c(N)c2ccc(NCC(F)(F)F)nc2n(-c2ccc(C)nc2)c1=O [Example 382, methyl 4-amino-1-(6-methylpyridin-3-yl)-2-oxo-7-((2,2,2-trifluoroethyl)amino)-1,2-dihydro-1,8-naphthyridine-3-carboxylate] in this work.
An IC50 (human MAT2A enzyme) of 1.55 nM was found for COC(=O)c1c(N)c2ccc(OC(C)C)nc2n(-c2ccc(Cl)cc2)c1=O [Example 388, methyl 4-amino-1-(4-chlorophenyl)-7-isopropoxy-2-oxo-1,2-dihydro-1,8-naphthyridine-3-carboxylate] in this work.
An IC50 (human MAT2A enzyme) of 1.31 nM was found for [2H]C([2H])([2H])OC(=O)c1c(N)c2ccc(OC(F)(F)F)cc2n(-c2ccc(N)cc2)c1=O [Example 391, methyl-d3 4-amino-1-(4-aminophenyl)-2-oxo-7-(trifluoromethoxy)-1,2-dihydroquinoline-3-carboxylate] in this work.
An IC50 (human MAT2A enzyme) of 1.52 nM was found for [2H]C([2H])([2H])OC(=O)c1c(N)c2ccc(OC(F)(F)F)cc2n(-c2ccc([C@@H](C)O)cc2)c1=O [Example 393, methyl-d3 4-amino-1-(4-((1R)-1-hydroxyethyl)phenyl)-2-oxo-7-(trifluoromethoxy)-1,2-dihydroquinoline-3-carboxylate] in this work.
An IC50 (human MAT2A enzyme) of 0.97 nM was found for [2H]C([2H])([2H])OC(=O)c1c(N)c2ccc(C(F)(F)F)cc2n(-c2ccc(N)cc2)c1=O [Example 412, methyl-d3 4-amino-1-(4-aminophenyl)-7-(trifluoromethyl)-2-oxo-1,2-dihydroquinoline-3-carboxylate] in this work.
An IC50 (human MAT2A enzyme) of 1.15 nM was found for [2H]C([2H])([2H])OC(=O)c1c(N)c2ccc(OC(F)F)cc2n(-c2ccc(N)cc2C)c1=O [Example 429, methyl-d3 4-amino-1-(2-methyl-4-aminophenyl)-7-(difluoromethoxy)-2-oxo-1,2-dihydroquinolin-3-carboxylate] in this work.
